# Test results: patent US5366726A (priority 1992, dated 1994)
# What was measured:
# [1] = system: Pneumocystis carinii; settings: in vivo; cited from earlier work
# [2] = TMP-SMX oral or parenteral; pentamidine isethionate parenteral; cited from earlier work
# [3] = system: Pneumocystis carinii; settings: human, in vivo; cited from earlier work
# [4] = system: Pneumocystis carinii; assay: Example 8: randomized clinical trial, prevention of PCP; type: in vivo, human; settings: AZT use
smiles,measurement,setting,value
"NCCC[C@](N)(C(=O)O)C(F)F [DFMO, α-difluoromethylornithine]",efficacy in rat PCP model,[1],not efficacious
N=C(N)c1ccc(OCCCCCOc2ccc(C(=N)N)cc2)cc1 [pentamidine isethionate],patients developing severe toxicity requiring discontinuation,[2],approximately 50%
COc1cc(NCc2ccc3nc(N)nc(N)c3c2C)cc(OC)c1OC [trimetrexate],relapse rates within one month,[3],high
Cc1cn([C@H]2C[C@H](N=[N+]=[N-])[C@@H](CO)O2)c(=O)[nH]c1=O [zidovudine],"independent reduction of PCP risk, Cox models",[4],two-fold
